Laboratory results as given in US20250261660A1, “FORMULATIONS AND METHODS FOR USE IN OXIDATION TREATMENT APPLICATIONS” (priority 2022, published 2025).

test system: microbial control in water; test: Microbial control in water at slightly alkaline pH, comparison of oxidants; format: cell-based
Source text: (§1) In some embodiments, microbial control in water at slightly alkaline pH was compared between peracetate oxidant, chlorine bleach, peracetic acid and chlorine dioxide. Alkaline pH is encountered in a variety of applications where microbial control and sanitization is needed, including pulp and paper processing.
as §1, with “water treatment” for “pulp”, “chill tanks in poultry processing, a type of food” for “paper”

| SMILES | performance as antimicrobial disinfectant |
| --- | --- |
| [O][Cl+][O-] [chlorine dioxide] | performed well |
| CC(=O)OO [peracetic acid] | lowest performance |
| OCl [chlorine bleach, hypochlorite] | lowest performance |
